From PubChem BioAssay AID256 (DTP/NCI, 2004)
Values joined by “and” are separate entries in the source; they are usually repeats but may differ in a detail not shown here. Identical values can stand only once. Inconclusive results and toxic doses are left out.

Tested on: CD2F1 mice, L1210 leukemia ip, survival T/C
Assay: NCI In Vivo Anticancer Drug Screen. Data for tumor model L1210 Leukemia (intraperitoneal) in CD2F1 (CDF1) mice
Settings: higher = longer survival
Outline: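 Mice carrying a transplanted tumor received test compound or vehicle alone. The value is the measurement in the treated group divided by that in the vehicle-treated control group.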

## CN1N=C(N)c2cn(C3OC(COP(=O)(O)O)C(O)C3O)c3ncnc1c23 (centres undefined)
endpoint: mean survival time, dose: 6.25 mg/kg/injection, schedule: Q01DX009 (ip), vehicle: water
  T/C: 123 % of control
endpoint: mean survival time, dose: 7.81 mg/kg/injection, schedule: Q01DX005 (iv), vehicle: water
  T/C: 109 % of control
endpoint: mean survival time, dose: 10.0 mg/kg/injection, schedule: Q01DX005 (ip), vehicle: water
  T/C: 150 % of control
endpoint: mean survival time, dose: 11.73 mg/kg/injection, schedule: Q01DX005 (iv), vehicle: water
  T/C: 112 % of control
endpoint: mean survival time, dose: 12.5 mg/kg/injection, schedule: Q01DX009 (ip), vehicle: water
  T/C: 155 % of control
endpoint: mean survival time, dose: 15.63 mg/kg/injection, schedule: Q01DX005 (iv), vehicle: water
  T/C: 114 % of control
endpoint: mean survival time, dose: 20.0 mg/kg/injection, schedule: Q01DX005 (ip), vehicle: water
  T/C: 152 % of control
endpoint: mean survival time, dose: 23.45 mg/kg/injection, schedule: Q01DX005 (iv), vehicle: water
  T/C: 119 % of control
endpoint: mean survival time, dose: 23.45 mg/kg/injection, schedule: Q01DX009 (ip), vehicle: water
  T/C: 153 % of control
endpoint: mean survival time, dose: 31.25 mg/kg/injection, schedule: Q01DX009 (ip), vehicle: water
  T/C: 159 % of control
endpoint: mean survival time, dose: 40.0 mg/kg/injection, schedule: Q01DX005 (ip), vehicle: water
  T/C: 157 % of control and 163 % of control
endpoint: mean survival time, dose: 46.9 mg/kg/injection, schedule: Q01DX005 (iv), vehicle: water
  T/C: 151 % of control
endpoint: mean survival time, dose: 46.9 mg/kg/injection, schedule: Q01DX009 (ip), vehicle: water
  T/C: 156 % of control and 174 % of control
endpoint: mean survival time, dose: 62.5 mg/kg/injection, schedule: Q01DX005 (iv), vehicle: water
  T/C: 157 % of control
endpoint: mean survival time, dose: 62.5 mg/kg/injection, schedule: Q01DX009 (ip), vehicle: water
  T/C: 161 % of control
endpoint: mean survival time, dose: 80.0 mg/kg/injection, schedule: Q01DX005 (ip), vehicle: water
  T/C: 163 % of control and 195 % of control
endpoint: median survival time, dose: 6.25 mg/kg/injection, schedule: Q03HX024 (ip), vehicle: alkali diluted with water
  T/C: 156 % of control
endpoint: median survival time, dose: 12.5 mg/kg/injection, schedule: Q03HX024 (ip), vehicle: alkali diluted with water
  T/C: 97 % of control
endpoint: median survival time, dose: 24.0 mg/kg/injection, schedule: Q01DX005 (ip), vehicle: water
  T/C: 150 % of control
endpoint: median survival time, dose: 24.0 mg/kg/injection, schedule: Q01DX009 (ip), vehicle: water
  T/C: 157 % of control
endpoint: median survival time, dose: 25.0 mg/kg/injection, schedule: Q01DX001 (ip), vehicle: alkali diluted with water
  T/C: 97 % of control
endpoint: median survival time, dose: 25.0 mg/kg/injection, schedule: Q01DX009 (ip), vehicle: alkali diluted with water
  T/C: 168 % of control
endpoint: median survival time, dose: 25.0 mg/kg/injection, schedule: Q04DX003 (ip), vehicle: alkali diluted with water
  T/C: 151 % of control
endpoint: median survival time, dose: 35.0 mg/kg/injection, schedule: Q01DX001 (ip), vehicle: water
  T/C: 120 % of control
endpoint: median survival time, dose: 35.0 mg/kg/injection, schedule: Q01DX005 (oral), vehicle: water
  T/C: 95 % of control
endpoint: median survival time, dose: 35.0 mg/kg/injection, schedule: Q01DX009 (ip), vehicle: water
  T/C: 167 % of control
endpoint: median survival time, dose: 35.0 mg/kg/injection, schedule: Q01DX009 (oral), vehicle: water
  T/C: 108 % of control
endpoint: median survival time, dose: 50.0 mg/kg/injection, schedule: Q01DX001 (ip), vehicle: alkali diluted with water
  T/C: 96 % of control
endpoint: median survival time, dose: 50.0 mg/kg/injection, schedule: Q01DX009 (ip), vehicle: alkali diluted with water
  T/C: 187 % of control
endpoint: median survival time, dose: 50.0 mg/kg/injection, schedule: Q04DX003 (ip), vehicle: alkali diluted with water
  T/C: 151 % of control
endpoint: median survival time, dose: 53.0 mg/kg/injection, schedule: Q01DX001 (ip), vehicle: water
  T/C: 112 % of control
endpoint: median survival time, dose: 53.0 mg/kg/injection, schedule: Q01DX001 (oral), vehicle: water
  T/C: 105 % of control
endpoint: median survival time, dose: 53.0 mg/kg/injection, schedule: Q01DX005 (iv), vehicle: water
  T/C: 155 % of control
endpoint: median survival time, dose: 53.0 mg/kg/injection, schedule: Q01DX005 (oral), vehicle: water
  T/C: 101 % of control
endpoint: median survival time, dose: 53.0 mg/kg/injection, schedule: Q01DX009 (ip), vehicle: water
  T/C: 182 % of control
endpoint: median survival time, dose: 53.0 mg/kg/injection, schedule: Q01DX009 (oral), vehicle: water
  T/C: 101 % of control
endpoint: median survival time, dose: 80.0 mg/kg/injection, schedule: Q01DX001 (oral), vehicle: water
  T/C: 103 % of control
endpoint: median survival time, dose: 80.0 mg/kg/injection, schedule: Q01DX005 (ip), vehicle: water
  T/C: 155 % of control
endpoint: median survival time, dose: 80.0 mg/kg/injection, schedule: Q01DX005 (iv), vehicle: water
  T/C: 158 % of control
endpoint: median survival time, dose: 80.0 mg/kg/injection, schedule: Q01DX005 (oral), vehicle: water
  T/C: 102 % of control
endpoint: median survival time, dose: 80.0 mg/kg/injection, schedule: Q01DX009 (ip), vehicle: water
  T/C: 185 % of control
endpoint: median survival time, dose: 80.0 mg/kg/injection, schedule: Q01DX009 (oral), vehicle: water
  T/C: 106 % of control
endpoint: median survival time, dose: 100.0 mg/kg/injection, schedule: Q01DX001 (ip), vehicle: alkali diluted with water
  T/C: 96 % of control
endpoint: median survival time, dose: 100.0 mg/kg/injection, schedule: Q01DX009 (ip), vehicle: alkali diluted with water
  T/C: 200 % of control
endpoint: median survival time, dose: 100.0 mg/kg/injection, schedule: Q01DX009 (oral), vehicle: alkali diluted with water
  T/C: 104 % of control
endpoint: median survival time, dose: 100.0 mg/kg/injection, schedule: Q04DX003 (ip), vehicle: alkali diluted with water
  T/C: 162 % of control
endpoint: median survival time, dose: 120.0 mg/kg/injection, schedule: Q01DX001 (oral), vehicle: water
  T/C: 105 % of control
endpoint: median survival time, dose: 120.0 mg/kg/injection, schedule: Q01DX005 (ip), vehicle: water
  T/C: 161 % of control
endpoint: median survival time, dose: 120.0 mg/kg/injection, schedule: Q01DX005 (oral), vehicle: water
  T/C: 105 % of control
endpoint: median survival time, dose: 120.0 mg/kg/injection, schedule: Q01DX009 (ip), vehicle: water
  T/C: 150 % of control
endpoint: median survival time, dose: 120.0 mg/kg/injection, schedule: Q01DX009 (oral), vehicle: water
  T/C: 103 % of control
endpoint: median survival time, dose: 180.0 mg/kg/injection, schedule: Q01DX001 (oral), vehicle: water
  T/C: 101 % of control
endpoint: median survival time, dose: 180.0 mg/kg/injection, schedule: Q01DX005 (oral), vehicle: water
  T/C: 107 % of control
endpoint: median survival time, dose: 180.0 mg/kg/injection, schedule: Q01DX009 (oral), vehicle: water
  T/C: 102 % of control
endpoint: median survival time, dose: 200.0 mg/kg/injection, schedule: Q01DX009 (oral), vehicle: alkali diluted with water
  T/C: 103 % of control
endpoint: median survival time, dose: 200.0 mg/kg/injection, schedule: Q04DX003 (ip), vehicle: alkali diluted with water
  T/C: 150 % of control
endpoint: median survival time, dose: 270.0 mg/kg/injection, schedule: Q01DX001 (oral), vehicle: water
  T/C: 101 % of control
endpoint: median survival time, dose: 270.0 mg/kg/injection, schedule: Q01DX005 (oral), vehicle: water
  T/C: 110 % of control
endpoint: median survival time, dose: 270.0 mg/kg/injection, schedule: Q01DX009 (oral), vehicle: water
  T/C: 112 % of control
endpoint: median survival time, dose: 400.0 mg/kg/injection, schedule: Q01DX009 (oral), vehicle: alkali diluted with water
  T/C: 114 % of control
endpoint: median survival time, dose: 405.0 mg/kg/injection, schedule: Q01DX001 (oral), vehicle: water
  T/C: 102 % of control
endpoint: median survival time, dose: 800.0 mg/kg/injection, schedule: Q01DX009 (oral), vehicle: alkali diluted with water
  T/C: 120 % of control
endpoint: median survival time, dose: 1600.0 mg/kg/injection, schedule: Q01DX009 (oral), vehicle: alkali diluted with water
  T/C: 122 % of control

## Nc1nc2c(ncn2-c2ccc(Cl)c(Cl)c2)c(=O)[nH]1
endpoint: mean survival time, dose: 50.0 mg/kg/injection, schedule: Q04DX002 (ip), vehicle: saline with Tween-80
  T/C: 98 % of control
endpoint: mean survival time, dose: 100.0 mg/kg/injection, schedule: Q04DX002 (ip), vehicle: saline with Tween-80
  T/C: 93 % of control and 97 % of control
endpoint: mean survival time, dose: 200.0 mg/kg/injection, schedule: Q04DX002 (ip), vehicle: saline with Tween-80
  T/C: 97 % of control
endpoint: mean survival time, dose: 400.0 mg/kg/injection, schedule: Q04DX002 (ip), vehicle: saline with Tween-80
  T/C: 93 % of control

## N#Cc1cn(C2OC(CO)C(O)C2O)c2ncnc(N)c12 (centres undefined)
endpoint: mean survival time, dose: 0.06 mg/kg/injection, schedule: Q01DX009 (ip), vehicle: saline
  T/C: 106 % of control
endpoint: mean survival time, dose: 0.13 mg/kg/injection, schedule: Q01DX009 (ip), vehicle: saline
  T/C: 110 % of control
endpoint: mean survival time, dose: 0.5 mg/kg/injection, schedule: Q01DX009 (ip), vehicle: saline
  T/C: 111 % of control
endpoint: mean survival time, dose: 1.0 mg/kg/injection, schedule: Q01DX009 (ip), vehicle: saline
  T/C: 95 % of control
endpoint: median survival time, dose: 0.1 mg/kg/injection, schedule: Q06HX024 (ip), vehicle: saline
  T/C: 100 % of control
endpoint: median survival time, dose: 0.2 mg/kg/injection, schedule: Q06HX024 (ip), vehicle: saline
  T/C: 102 % of control
endpoint: median survival time, dose: 0.4 mg/kg/injection, schedule: Q06HX024 (ip), vehicle: saline
  T/C: 109 % of control
